From article PMC9304416, “A phosphite-based screening platform for identification of enzymes favoring nonnatural cofactors” (Scientific Reports, 2022)

Target: T1, ME (malic enzyme) (Escherichia coli, UniProt P26616, L301R/Q392C, form not given)
T1 construct: gene maeA; C-terminal His6 tag kept; expressed in E. coli BW14329 from pTrc99K; crude lysate
Assay: formazan (MTT/phenazine ethosulfate) absorbance at […] nm, crude lysate
Assay type: biochemical
Conditions: 0.05 mM NCD; 5.0 mM L-malate; 50 mM HEPES pH 7.5; 10 mM MgCl2; room temperature

T1 sequence (P26616 whole entry L301R/Q392C, form open): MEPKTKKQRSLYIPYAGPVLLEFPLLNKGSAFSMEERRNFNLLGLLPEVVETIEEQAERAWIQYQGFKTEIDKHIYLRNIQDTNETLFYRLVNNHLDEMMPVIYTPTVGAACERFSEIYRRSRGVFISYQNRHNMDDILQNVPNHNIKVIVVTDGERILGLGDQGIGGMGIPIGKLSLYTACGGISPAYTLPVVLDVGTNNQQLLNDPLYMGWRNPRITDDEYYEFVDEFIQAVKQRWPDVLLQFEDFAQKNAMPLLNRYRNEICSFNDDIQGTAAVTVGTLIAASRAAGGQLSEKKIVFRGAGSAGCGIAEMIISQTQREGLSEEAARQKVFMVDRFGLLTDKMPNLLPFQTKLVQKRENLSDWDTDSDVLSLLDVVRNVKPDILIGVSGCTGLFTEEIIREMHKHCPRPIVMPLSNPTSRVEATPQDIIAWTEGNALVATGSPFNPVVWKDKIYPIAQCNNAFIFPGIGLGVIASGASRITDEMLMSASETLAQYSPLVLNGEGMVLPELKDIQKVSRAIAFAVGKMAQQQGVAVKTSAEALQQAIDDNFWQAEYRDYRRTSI

NC(=O)c1ccc[n+]([C@@H]2O[C@H](COP(=O)(O)OP(=O)(O)OC[C@H]3O[C@@H](n4ccc(N)nc4=O)[C@H](O)[C@@H]3O)[C@@H](O)[C@H]2O)c1 [NCD]
formazan (MTT/phenazine ethosulfate) absorbance at 570 nm, crude lysate: ME* or ME-NCD, activity of ME* or ME toward NCD
